In PubChem BioAssay AID1963439 (Molecular Pharmacology Branch, DTP, NCI, 2024):

System: NCI-H196 complex spheroids with HUVEC/MSC, growth % T/C
Assay: Anticancer human tumor NCI-H196 cell line growth inhibition [Asc];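 further: spheroids exposed to compound for 7 days before measurement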;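 on viability, T/C: 100% = DMSO vehicle control wells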
Settings: for IC50: curve of first compound; for viability, T/C: stronger effect = lower value
Procedure, shortened: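 Concentration series start at each agent's clinical Cmax, or at 10 microM when none is established, and drop in half-log steps; agents are applied alone or together to complex spheroids built with HUVEC and hMSC.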

[1] = second compound 0.03 µM, first compound 0.0316 µM
[2] = second compound 0.03 µM, first compound 0.1 µM
[3] = second compound 0.03 µM, first compound 0.316 µM
[4] = second compound 0.03 µM, first compound 1 µM
[5] = second compound 0.03 µM, first compound 3.16 µM
[6] = second compound 0.03 µM, first compound 10 µM
[7] = second compound 0.0949 µM, first compound 0.0316 µM
[8] = second compound 0.0949 µM, first compound 0.1 µM
[9] = second compound 0.0949 µM, first compound 0.316 µM
[10] = second compound 0.0949 µM, first compound 1 µM
[11] = second compound 0.0949 µM, first compound 3.16 µM
[12] = second compound 0.0949 µM, first compound 10 µM
[13] = second compound 0.3 µM, first compound 0.0316 µM
[14] = second compound 0.3 µM, first compound 0.1 µM
[15] = second compound 0.3 µM, first compound 0.316 µM
[16] = second compound 0.3 µM, first compound 1 µM
[17] = second compound 0.3 µM, first compound 3.16 µM
[18] = second compound 0.3 µM, first compound 10 µM
[19] = second compound 0.949 µM, first compound 0.0316 µM
[20] = second compound 0.949 µM, first compound 0.1 µM
[21] = second compound 0.949 µM, first compound 0.316 µM
[22] = second compound 0.949 µM, first compound 1 µM
[23] = second compound 0.949 µM, first compound 3.16 µM
[24] = second compound 0.949 µM, first compound 10 µM
[25] = second compound 3 µM, first compound 0.0316 µM
[26] = second compound 3 µM, first compound 0.1 µM
[27] = second compound 3 µM, first compound 0.316 µM
[28] = second compound 3 µM, first compound 1 µM
[29] = second compound 3 µM, first compound 3.16 µM
[30] = second compound 3 µM, first compound 10 µM

| SMILES | IC50 (second compound 0.03 µM) [µM] | IC50 (second compound 0.0949 µM) [µM] | IC50 (second compound 0.3 µM) [µM] | IC50 (second compound 0.949 µM) [µM] | IC50 (second compound 3 µM) [µM] | viability, T/C [1] [%] | viability, T/C [2] [%] | viability, T/C [3] [%] | viability, T/C [4] [%] | viability, T/C [7] [%] | viability, T/C [8] [%] | viability, T/C [9] [%] | viability, T/C [10] [%] | viability, T/C [13] [%] | viability, T/C [14] [%] | viability, T/C [15] [%] | viability, T/C [16] [%] | viability, T/C [19] [%] | viability, T/C [20] [%] | viability, T/C [21] [%] | further results |
| --- | --- | --- | --- | --- | --- | --- | --- | --- | --- | --- | --- | --- | --- | --- | --- | --- | --- | --- | --- | --- | --- |
| C#Cc1c(F)ccc2cc(O)cc(-c3ncc4c(N5CC6CCC(C5)N6)nc(OCC56CCCN5CC(F)C6)nc4c3F)c12 (stereo not given) + CCN1C(C(=O)NC23CCC(C(=O)O)(CC2)CC3)C(c2cccc(Cl)c2F)C2(C(=O)Nc3cc(Cl)ccc32)C12CCCCC2 | > 10 | > 10 | > 10 | > 10 | > 10 | 96.4 | 102 | 97.6 | 101 | 102 | 110 | 106 | 95.8 | 109 | 108 | 117 | 96.9 | 123 | 123 | 115 | viability, T/C [5]: 88.7%; viability, T/C [6]: 104%; viability, T/C [11]: 110%; viability, T/C [12]: 97.4%; viability, T/C [17]: 97.5%; viability, T/C [18]: 99%; viability, T/C [22]: 93%; viability, T/C [23]: 115%; viability, T/C [24]: 103%; viability, T/C [25]: 118%; viability, T/C [26]: 123%; viability, T/C [27]: 129%; viability, T/C [28]: 114%; viability, T/C [29]: 108%; viability, T/C [30]: 114% |
| C=C(F)C(=O)N1CCN(c2nc(OCC3CCCN3C)nc3c2CCN(c2cccc4cccc(Cl)c24)C3)CC1CC#N (stereo not given) + CCN1C(C(=O)NC23CCC(C(=O)O)(CC2)CC3)C(c2cccc(Cl)c2F)C2(C(=O)Nc3cc(Cl)ccc32)C12CCCCC2 | > 10 | > 10 | > 10 | > 10 | > 10 | 124 | 106 | 108 | 102 | 112 | 107 | 113 | 101 | 108 | 114 | 103 | 115 | 115 | 119 | 117 | viability, T/C [5]: 108%; viability, T/C [6]: 93.2%; viability, T/C [11]: 109%; viability, T/C [12]: 96.2%; viability, T/C [17]: 110%; viability, T/C [18]: 98.1%; viability, T/C [22]: 106%; viability, T/C [23]: 114%; viability, T/C [24]: 105%; viability, T/C [25]: 135%; viability, T/C [26]: 119%; viability, T/C [27]: 117%; viability, T/C [28]: 120%; viability, T/C [29]: 112%; viability, T/C [30]: 114% |
| C=CC(=O)N1CCN(c2nc(=O)n(-c3c(C)ccnc3C(C)C)c3nc(-c4c(O)cccc4F)c(F)cc23)C(C)C1 (stereo not given) + CCN1C(C(=O)NC23CCC(C(=O)O)(CC2)CC3)C(c2cccc(Cl)c2F)C2(C(=O)Nc3cc(Cl)ccc32)C12CCCCC2 | > 10 | > 10 | > 10 | > 10 | > 10 | 104 | 105 | 104 | 107 | 111 | 111 | 121 | 112 | 106 | 109 | 108 | 107 | 123 | 110 | 115 | viability, T/C [5]: 121%; viability, T/C [6]: 107%; viability, T/C [11]: 106%; viability, T/C [12]: 103%; viability, T/C [17]: 117%; viability, T/C [18]: 119%; viability, T/C [22]: 110%; viability, T/C [23]: 140%; viability, T/C [24]: 110%; viability, T/C [25]: 116%; viability, T/C [26]: 120%; viability, T/C [27]: 115%; viability, T/C [28]: 124%; viability, T/C [29]: 135%; viability, T/C [30]: 132% |
| CNC(C)C(=O)NC1CN(S(=O)(=O)c2cccc(S(=O)(=O)N3CCC4CCC(C(=O)NC(c5ccccc5)c5ccccc5)N4C(=O)C(NC(=O)C(C)NC)C3)c2)CCC2CCC(C(=O)NC(c3ccccc3)c3ccccc3)N2C1=O (stereo not given) + CCN1C(C(=O)NC23CCC(C(=O)O)(CC2)CC3)C(c2cccc(Cl)c2F)C2(C(=O)Nc3cc(Cl)ccc32)C12CCCCC2 | < 0.00316 | < 0.00316 | < 0.00316 | 0.00318 | < 0.00316 | 4.75 | 1.79 | 2.4 | 1.46 | 4.24 | 4.09 | 2.61 | 1.28 | 5.95 | 3.82 | 3.47 | 1.29 | 6.82 | 2.74 | 2.84 | viability, T/C (second compound 0.03 µM, first compound 0.00316 µM): 40.6%; viability, T/C (second compound 0.03 µM, first compound 0.01 µM): 17.9%; viability, T/C (second compound 0.0949 µM, first compound 0.00316 µM): 45.3%; viability, T/C (second compound 0.0949 µM, first compound 0.01 µM): 19.1%; viability, T/C (second compound 0.3 µM, first compound 0.00316 µM): 47.4%; viability, T/C (second compound 0.3 µM, first compound 0.01 µM): 16.6%; viability, T/C (second compound 0.949 µM, first compound 0.00316 µM): 50.4%; viability, T/C (second compound 0.949 µM, first compound 0.01 µM): 18.4%; viability, T/C [22]: 2.2%; viability, T/C (second compound 3 µM, first compound 0.00316 µM): 47.6%; viability, T/C (second compound 3 µM, first compound 0.01 µM): 16.9%; viability, T/C [25]: 4.77%; viability, T/C [26]: 2.4%; viability, T/C [27]: 3.09%; viability, T/C [28]: 1.59% |
